{"source": "patent US20260335277A1", "about": "“CHLOROTONIL DERIVATIVES” (priority 2023, published 2026)", "key": {"[1]": {"tested_on": "mature gametocytes (stages IV and V)", "assay": "Activity against mature gametocytes (stage IV-V), bioluminescence assay", "format": "cell-based, P. falciparum", "description": "Activity against gametocytes was determined using an in vitro bioluminescence assay as described previously (doi.org/10.1371/journal.pone.0035019)."}, "S. aureus Newman": {"tested_on": "S. aureus Newman", "assay": "MIC in presence of fetal bovine serum (FBS)", "format": "cell-based", "settings": "for MIC: Staphylococcus aureus, NEWMAN, read-out: MIC against S. aureus Newman", "description": "(§1) Minimal inhibitory concentration (MIC) of the compounds in the present invention was determined using broth microdilution performed according to EUCAST guidelines (ISO20776-1:2019). S. aureus ATCC29213 and E. faecalis ATCC29212 served as quality control strains."}, "E. faecium": {"tested_on": "E. faecium", "assay": "MIC 50/90 profiling in multidrug-resistant clinical isolates", "format": "cell-based", "description": "as §1\n(§2) Activity of dehalogenil against multidrug-resistant clinical isolates of S. aureus (n=100) and Enterococcus spp. […] Compared to the standard of care (linezolid, daptomycin and tigecyclin), dehalogenil MIC90 was lowered in both pathogens by 20-40-fold with unimodal distribution indicating no pre-existing resistances."}, "[2]": {"tested_on": "clinical isolates of S. aureus", "assay": "MIC 50/90 profiling in multidrug-resistant clinical isolates", "format": "cell-based", "description": "as §1, §2"}, "zebrafish larvae": {"tested_on": "zebrafish larvae", "assay": "Toxicity in zebrafish larvae (MTC / IC50)", "format": "in vivo", "description": "For toxicity screening, zebrafish larvae were exposed three days post fertilization and monitored for 48 h until five days post fertilization. All malformations and pathophysiological phenotypes were noted and used to determine the inhibitory concentration (IC50) of the respective derivative against zebrafish larvae. The selectivity index (SI) was then calculated using the IC50 and the MIC of either S. aureus or P. falciparum 3D7."}, "Plasma stability": {"assay": "Plasma stability", "format": "in vitro ADME", "settings": "for half-life: plasma, read-out: plasma stability t1/2 (converted)", "description": "(§3) Complementing the toxicity profiling, ADME properties of the lead dehalogenil were determined. This had not been possible for the first generation frontrunner ChB1-Epo2 or the natural product ChA because of their poor limit of detection. […] Across species (mouse, rat, human), metabolic stability is high while plasma stability is moderate. Besides, no hemolysis and no inhibition of the metabolically important enzyme CYP3A4 was observed by both dehalogenil and ChA. Plasma protein binding (PPB) is >99.4% in all species."}, "Inhibition of CYP3A4": {"assay": "Inhibition of CYP3A4", "format": "in vitro ADME", "settings": "cyp3a4", "description": "as §3"}, "CYP3A4": {"tested_on": "CYP3A4", "assay": "Inhibition of CYP3A4", "format": "in vitro ADME", "description": "as §3"}, "S. aureus USA300LAC": {"tested_on": "S. aureus USA300LAC", "assay": "S. aureus blood infection (sepsis) model", "format": "in vivo, mouse (CD-1)", "settings": "for survival: BID, until 3 days post infection", "description": "Dehalogenil was further tested in a Staphylococcus blood infection (sepsis) model, alongside linezolid as reference compound. Mice were infected using S. aureus USA300LAC (10^8 CFU/animal) and subsequently treated with a daily total of 5, 10 or 25 mg/kg SC dehalogenil, split into two doses (8 h interval, BID regimen) until 3 days post infection.\nMice were infected intravenously using S. aureus USA300LAC (10^8 CFU/mice). Compounds were administered twice daily starting day 0 until day 3, with the daily total dose indicated. Curves were compared via Mantel-Cox test (Prism), with ***: p<0.001 and **: p<0.01."}, "[3]": {"assay": "Activity compared with chlorotonil A (general statement)", "settings": "vs chlorotonil A"}, "[4]": {"settings": "Enterococcus faecium, E. faecium (n = 98)"}, "[5]": {"settings": "Staphylococcus aureus, S. aureus clinical isolates (n = 100)"}}, "note": "Where two headings read alike, the source gives them in different places."}
{"smiles": "CC1=CC(C)C2C(C=CC3C(C)C=CC=CC(C)OC(=O)C(C)C(=O)CC(=O)C32)C1", "note": "(stereo not drawn) [dehalogenil]", "values": [{"measurement": "IC50", "setting": "[1]", "result": 0.0058, "unit": "µM"}, {"measurement": "MIC", "setting": "S. aureus Newman; MHB2 + 5% FBS", "result": 2, "unit": "µg/mL"}, {"measurement": "MIC", "setting": "S. aureus Newman; MHB2 + 10% FBS", "result": 4, "unit": "µg/mL"}, {"measurement": "MIC", "setting": "S. aureus Newman; MHB2 + 20% FBS", "result": 4, "unit": "µg/mL"}, {"measurement": "MIC", "setting": "S. aureus Newman; MHB2 + 30% FBS", "result": 8, "unit": "µg/mL"}, {"measurement": "MIC", "setting": "S. aureus Newman; MHB2 + 40% FBS", "result": 8, "unit": "µg/mL"}, {"measurement": "MIC", "setting": "S. aureus Newman; MHB2 + 50% FBS", "result": "> 8", "unit": "µg/mL"}, {"measurement": "MIC", "setting": "S. aureus Newman; MHB2, no FBS", "result": 0.0625, "unit": "µg/mL"}, {"measurement": "Activity in presence of FBS", "setting": "S. aureus Newman; above 20% FBS", "result": "remained active above 20% FBS"}, {"measurement": "MIC", "setting": "E. faecium; Enterococcus faecium, read-out: MIC range", "result": "0.00625 to 0.2", "unit": "µg/mL"}, {"measurement": "MIC50", "setting": "E. faecium; [4]", "result": 0.025, "unit": "µg/mL"}, {"measurement": "MIC90", "setting": "E. faecium; [4]", "result": 0.1, "unit": "µg/mL"}, {"measurement": "MIC90 lowered compared to standard of care", "setting": "E. faecium; vs linezolid, daptomycin and tigecyclin, Enterococcus spp. (n=98)", "result": "20-40 fold"}, {"measurement": "MIC", "setting": "[2]; [5]", "result": "0.025 to 0.4", "unit": "µg/mL"}, {"measurement": "MIC50", "setting": "[2]; [5]", "result": 0.1, "unit": "µg/mL"}, {"measurement": "MIC90", "setting": "[2]; [5]", "result": 0.2, "unit": "µg/mL"}, {"measurement": "MIC90 lowered compared to standard of care", "setting": "[2]; vs linezolid, daptomycin and tigecyclin, S. aureus (n=100)", "result": "20-40 fold"}, {"measurement": "toxic effects in zebrafish", "setting": "zebrafish larvae; 5-10 μg/mL", "result": "no toxic effects"}, {"measurement": "IC50 in zebrafish larvae", "setting": "zebrafish larvae; exposed 3 days post fertilization, monitored 48 h", "result": 27.4, "unit": "µM"}, {"measurement": "Selectivity Index S. aureus", "setting": "zebrafish larvae; zebrafish IC50 / MIC S. aureus Newman", "result": 224.8}, {"measurement": "Selectivity Index P. falc 3D7", "setting": "zebrafish larvae; zebrafish IC50 vs P. falciparum 3D7", "result": 5479.6}, {"measurement": "plasma stability", "setting": "Plasma stability; human", "result": "moderate"}, {"measurement": "half-life", "setting": "Plasma stability; human", "result": 1.4, "unit": "h"}, {"measurement": "plasma stability", "setting": "Plasma stability; mouse", "result": "moderate"}, {"measurement": "half-life", "setting": "Plasma stability; mouse", "result": 1.5, "unit": "h"}, {"measurement": "plasma stability", "setting": "Plasma stability; rat", "result": "moderate"}, {"measurement": "half-life", "setting": "Plasma stability; rat", "result": 1.2, "unit": "h"}, {"measurement": "IC50", "setting": "Inhibition of CYP3A4", "result": 16.4, "unit": "µM"}, {"measurement": "inhibition of CYP3A4", "setting": "CYP3A4", "result": "no inhibition"}, {"measurement": "survival", "setting": "S. aureus USA300LAC; 10 mg/kg daily total SC", "result": 80, "unit": "%"}, {"measurement": "survival", "setting": "S. aureus USA300LAC; 25 mg/kg daily total SC", "result": 90, "unit": "%"}, {"measurement": "survival rates compared to linezolid", "setting": "S. aureus USA300LAC; 10 and 25 mg/kg SC vs linezolid 60 mg/kg", "result": "increased survival rates comparable to a higher dose of linezolid"}, {"measurement": "activity compared to chlorotonil A", "setting": "[3]", "result": "activity similar to chlorotonil A"}]}
